These results are taken from patent US20230203060A1 (GENFLEET THERAPEUTICS (SHANGHAI) INC., priority 2020, published 2023).

Assay [1] deals with phosphorylated ERK downstream of KRAS G12C in MIA PaCa2 cells. Kind of assay: Cell p-ERK detection experiment (HTRF) in MIA PaCa2. It counts as cell-based, human. The following applies: Homo sapiens, MIA PaCa-2, 2 h, MIA PaCa2 cells, 2 hours with compound, Advance ERK phospho-T202/Y204 HTRF kit; read-out: p-ERK IC50. Summed up:
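KRAS G12C-mutant MIA PaCa2 cells (2.5E4 per well, overnight) exposed 2 h to a 3.16-fold compound dilution series at 0.1% DMSO. Lysates probed 4 h with HTRF antibodies to ERK phospho-T202/Y204; inhibition versus DMSO control and blank, IC50 by four-parameter fit.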
A general note: TR-FRET usually uses a lanthanide donor and a delayed reading to cut background.

For assay [2], the system named is KRAS G12C mutant MIA PaCa-2 cells. Kind of assay: Cell proliferation inhibition experiment, 3D spheroid, CellTiter-Glo, MIA PaCa-2. It counts as cell-based, human. The following applies: Homo sapiens, MIA PaCa-2, 120 h, 3D cell model in 384-well spheroid plate, 5 days, CellTiter-Glo; read-out: MIA-PaCa2 IC50. Summed up:
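200 MIA PaCa-2 cells/well grown overnight as 3D spheroids, then exposed to 3.16-fold compound dilutions (0.1% DMSO final) for 5 days. Viability read by CellTiter-Glo luminescence; inhibition calculated against DMSO and medium-only controls, and IC50 fitted by four-parameter model.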
Background: ATP-based viability assays read luminescence as a measure of living cells.

Take `C=CC(=O)N1CCN2C(=O)c3c(N4CC(NC)CC4(C)C)nc(-c4ccccc4F)c(Cl)c3OC[C@H]2C1` (stereo partly drawn) [Z661, (6aR)-8-acryloyl-4-chloro-1-(2,2-dimethyl-4-(methylamino)pyrrolidin-1-yl)-3-(2-fluorophenyl)-6,6a,7,8,9,10-hexahydro-12H-pyrazino[2,1-c]pyrido[3,4-f][1,4]oxazepin-12-one]: the IC50 (in general, the midpoint of a concentration-inhibition curve) in assay [1] worked out at 29 nM; in assay [2], 13.1 nM.

With `C=CC(=O)N1CCN2C(=O)c3c(N4CC(N(C)CC(F)F)CC4(C)C)nc(-c4ccccc4F)c(Cl)c3OCC2C1` (single isomer, unassigned) [Z659-2], the 50% inhibitory concentration (IC50) in assay [1] was found to be 22 nM; in assay [2] it was 4 nM.

As to `C=CC(=O)N1CCN2C(=O)c3c(N4C[C@H](N5CC(F)(F)C5)CC4(C)C)nc(-c4ccccc4F)c(Cl)c3OC[C@H]2C1` (single isomer, unassigned) [Z525-1], the 50% inhibitory concentration (IC50) in assay [1] was 1280 nM; in assay [2], 478 nM.

`C=CC(=O)N1CCN2C(=O)c3c(N4CCOC(C)(C)C4)nc(-c4c(O)cccc4F)c(Cl)c3OC[C@H]2C1` [Z37, (6aR)-8-acryloyl-4-chloro-1-(2,2-dimethylmorpholino)-3-(2-fluoro-6-hydroxyphenyl)-6,6a,7,8,9,10-hexahydro-12H-pyrazino[2,1-c]pyrido[3,4-f][1,4]oxazepin-12-one]: the values for the 50% inhibitory concentration (IC50) in assay [1] and in assay [2] were 145 nM and 12 nM, respectively.

Consider `C=CC(=O)N1CCN2C(=O)c3c(N4C[C@@H](N5CC(F)(F)C5)CC4(C)C)nc(-c4ccccc4F)c(Cl)c3OC[C@H]2C1` (single isomer, unassigned) [Z525-2], for which the half-inhibitory concentration (IC50) in assay [1] is 226 nM; in assay [2], 14 nM.

For the compound `C=CC(=O)N1CCN2C(=O)c3c(N4C[C@H](N5CCN(C)CC5)C[C@@H]4C)nc(-c4ccccc4F)c(Cl)c3OC[C@H]2C1` [Z470-1], the IC50 in assay [1] was found to be 255 nM; in assay [2], 43 nM.

`C=CC(=O)N1CCN2C(=O)c3c(N4C[C@@H](N(C)C)CC4(C)C)nc(-c4ccccc4)c(Cl)c3OC[C@H]2C1` (single isomer, unassigned) [Z655-1]: the results for the 50% inhibitory concentration (IC50) in assay [1] and in assay [2] were 461 nM and 113 nM, respectively.

`C=CC(=O)N1CCN2C(=O)c3c(N4CC(N5CCC(F)(F)C5)CC4(C)C)nc(-c4ccccc4F)c(Cl)c3OC[C@H]2C1` (stereo partly drawn) [Z532, (6aR)-8-acryloyl-4-chloro-1-(3,3-difluoro-5′,5′-dimethyl-[1,3′-bipyrrolidin]-1′-yl)-3-(2-fluorophenyl)-6,6a,7,8,9,10-hexahydro-12H-pyrazino[2,1-c]pyrido[3,4-f][1,4]oxazepin-12-one]: the values for the concentration for half-maximal inhibition (IC50) in assay [1] and in assay [2] were 85 nM and 24.5 nM, respectively.

With `C=CC(=O)N1CCN2C(=O)c3c(N4C[C@@H](N5CC(OC)C5)CC4(C)C)nc(-c4ccccc4F)c(Cl)c3OC[C@H]2C1` [Z479-1, (R)-8-acryloyl-4-chloro-3-(2-fluorophenyl)-1-((S)-4-(3-methoxyazetidin-1-yl)-2,2-dimethylpyrrolidin-1-yl)-6,6a,7,8,9,10-hexahydro-12H-pyrazino[2,1-c]pyrido[3,4-f][1,4]oxazepin-12-one], the half-inhibitory concentration (IC50) in assay [1] worked out at 30 nM; in assay [2], 15 nM.

As to `C=CC(=O)N1CCN2C(=O)c3c(N4CCCC45CC5)nc(-c4c(O)cccc4F)c(Cl)c3OC[C@H]2C1` [Z56, (6aR)-8-acryloyl-4-chloro-3-(2-fluoro-6-hydroxyphenyl)-1-(4-azaspiro[2.4]heptan-4-yl)-6,6a,7,8,9,10-hexahydro-12H-pyrazino[2,1-c]pyrido[3,4-f][1,4]oxazepin-12-one], the IC50 in assay [1] turned out to be 129 nM; in assay [2] it was 71 nM.

On to `C=CC(=O)N1CCN2C(=O)c3c(N4C[C@H](N5CC(F)C5)CC4(C)C)nc(-c4ccccc4F)c(F)c3OC[C@H]2C1` [Z654-2, (R)-8-acryloyl-4-fluoro-1-((R)-4-(3-fluoroazetidin-1-yl)-2,2-dimethylpyrrolidin-1-yl)-3-(2-fluorophenyl)-6,6a,7,8,9,10-hexahydro-12H-pyrazino[2,1-c]pyrido[3,4-f][1,4]oxazepin-12-one], for which the values for the IC50 in assay [1] and in assay [2] were 167 nM and 50.2 nM, respectively.
